The source of these data is US20250263771A1, “SYSTEM AND METHODS TO MEASURE CELL VIABILITY IN HIGH THROUGHPUT VIA CONTINUOUS GEOMETRY” (priority 2022, published 2025).

Where two headings read alike, the source gives them in different places.

Experiment [1] has as its system E. coli knockout mutants. As to the method: (§1) Strains and growth conditions: E. coli strain BW25113 was used unless otherwise noted in the text. This strain was acquired from the Yale Coli Genetic Stock Center. E. coli was grown in LB (Sigma Aldrich) at 37° C. in a shaking incubator. B. subtilis strain W168 was a kind gift from the Garner lab and was grown in LB at 37° C. in a shaking incubator. P. putida strain KT2440 was a kind gift from Jacob Fenster and was grown in LB at 30° C. in a shaking incubator. S. typhimurium strain SL1344 was a kind gift from the Corrie Detweiler and was grown in LB at 37° C. in a shaking incubator. S. cerevisiae strain BY4741 was a kind gift from Roy Parker and was grown in YEPD at 30° C. in a shaking incubator. P. aeruginosa strain PA01 was a kind gift from the Zemer Gitai and was grown in LB at 37° C. in a shaking incubator. Knockouts were selected from the Keio collection (Dharmacon). The PEC promoter library in E. coli was acquired from Dharmacon (PEC3877).
(§2) For stationary phase treatments, bacterial cells were grown overnight (≥16 hours) in a shaking incubator (180 RPM). For P. putida only, cells were grown for 2 days. Upon entering the stationary phase, cells were distributed into a 96 well flat-bottom plates with 100 μL of cells per well. Drug treatments at 1000× were plated into a separate 96 well-round bottom plate. A 100 nL pin transfer was used to dilute the drug plate into the cell plate at a 1:1000 ratio. This plate was then placed into a shaking incubator for the experimental time. To measure antibiotic treatments in the exponential phase, overnight culture was diluted 1:1000 into fresh LB. This culture was then placed into the incubator for 2 hours. After this incubation, the cells were then distributed to the 96 well plate followed by drug treatment.
(§3) Embedding for GVA: The goal for embedding was to have a uniformly mixed sample in liquid hydrogel that would quickly solidify the 3D mold. Applicants used 0.5% agarose as a convenient hydrogel that would solidify quickly and prevent cell motility once solidified.

Experiment [2] deals with E. coli, stationary phase and exponential phase. In words: GVA viability screen of an 80-compound drug library, 96 well format. The experiment is classed as cell-based, Escherichia coli. The settings on record: treated for 4 hours, duplicate. As to the method:
FIGS. 27A-B: Screen of compounds that affect viability in exponential and stationary phase using data from a GVA assay in 96 well format drug testing. The antibiotic potential of a drug library (80 compounds) was tested against exponential and stationary phase bacteria in duplicate. (A) Viability reduction of compounds in exponential (top) and stationary (bottom) phase cells. Each x is the mean of 2 biological replicates. (B) Scatter plot of the viability screen comparing exponential and stationary phase activity. Each blue dot represents the mean of 2 replicates of a compound treatment. Red dots represent DMSO controls. The dashed lines represent 3 times the standard deviation of the negative controls. Screen was performed with E. coli with both stationary phase and exponential phase bacterial populations. Both phases were screened in duplicate. 80 compounds and 16 controls were screened. Cells in stationary and exponential phase were treated with the compound for 4 hours, followed by casting into pipet tips using the GVA protocol.

Experiment [3] relates to E. coli strain BW25113. In words: Geometric Viability Assay (GVA) of drug-treated stationary and exponential E. coli cultures. The experiment is classed as cell-based, Escherichia coli. The following applies: for activity in dose response, stationary versus exponential cultures (follow up of Enzo library hits): stationary and exponential cultures; for activity in aerobic versus anaerobic environments: stationary phase cells; for resistance of stationary phase cells compared with exponentially growing cells: 3 antibiotics, 6 concentrations, 5 durations; for reduction in viability: within an hour.
From the text: Previous studies have found slow growth is a non-inheritable form of antibiotic tolerance buying time for viable cells to develop genetic resistance. Slow-growing cells commonly have reduced metabolic activity and DNA replication as compared to exponentially growing cells. As a result, slow-growing cells are refractory to antibiotics targeting DNA synthesis (fluoroquinolones), protein translation (aminoglycosides), and cell wall biogenesis (beta-lactams). Growth-dependent tolerance can only be observed by measuring viability but the tedium and cost of the drop CFU assay limits extensive profiling. Using GVA, Applicants directly compared the viability of exponentially growing cells and stationary phase cells to different doses of three antibiotics for varying amounts of time. In total, Applicants tested 3 antibiotics at 6 different concentrations for 5 different durations against stationary and exponential cells, in duplicate, for a total of 360 viability measurements (FIG. 5a,b).
To explore the GVA technique's potential for high throughput viability measurements, Applicants screened the ICCB Enzo Bioactive library (469 compounds) against stationary and exponentially growing cultures (FIG. 5c,d). […] The viability of BW25113 E. coli treated with the Enzo library was measured in both exponential and stationary phase. Including controls and removing pipette errors, 2267 conditions were measured. […] Mitomycin C is a known antibiotic acting through DNA cross-linking. […] Phentolamine is an α-adrenergic receptor antagonist.
as §2, §3

Experiment [4] concerns stationary phase E. coli. The settings on record: for increase in viability as compared to either drug alone: 24 hours treatment. As to the method:
as §2, §3

Experiment [5] has as its system cytoplasmic superoxide (ROS) in E. coli. In words: Single-cell CellROX fluorescence (ROS levels) over time. Type of experiment: cell-based, Escherichia coli. The following applies: for effect on ROS (CellROX signal) over time: lethal dose, compared to untreated control. Here is the method: (§4) Microscopy measurements: For all microscopy experiments, cells from overnight cultures were diluted 1:100 in minimal media (PMM) and shaken for 2 hours at 37° C. to ensure cells had exited lag phase. After 2 hours of growth, 2 μL of dilute cell culture was added to the top of a cooled, 200 μL 2% low melt agarose pad with CellROX dye (5 μM). The agarose pad was molded to fit in 96-well square bottom plates (Brooks Automation, MGB096-1-2-LG-L). After 10 minutes of drying, the pad with affixed cells was inverted and pressed into the bottom of an imaging plate. Fields of view (FOV) were selected manually on the microscope. After FOVs were selected and before the imaging started, the drug was added on top as done previously.

Experiment [6] relates to S. typhimuirium. The settings on record: DPI crossed with ciprofloxacin or gentamicin. As to the method:
as §1

Experiment [7] has as its system promoters of genes downstream of lexA (pol, dinB, dinG, yjiH, lexA).
From the text: (§5) Filamentation is a classic hallmark of SOS activation and increases in ROS are an established SOS activator. Therefore, Applicants wondered if DPI was activating SOS. Applicants examined the promoter activity of genes downstream of lexA using the PEC GFP-promoter library. LexA is a master transcriptional repressor of genes in the SOS regulon such as pol, dinB, dinG, and yjiH, and is auto-catalytically degraded by activated recA.
as §1, §4

In experiment [8] the test system is E. coli. The settings on record: DPI and ciprofloxacin, optical density over 8 hours.
From the text: FIG. 6A-I: DPI generates ROS, activates the SOS response, and antagonizes ciprofloxacin. a) Median, single-cell CellROX signal as a function of time for DPI (blue), ciprofloxacin (orange), and an untreated control (yellow). b) Efficacy of DPI in aerobic and anaerobic conditions. […] Brightness and contrast is the same for all images. […] The dose response for the wild-type (WT) cells is depicted in green or purple, respectively. Shaded errorbars equal to the standard deviation in logspace between 3 replicates. […] Each square in the heatmap was the mean of duplicate conditions. Colorbar correspond to the log10 (CFUs/mL) for each dose combination. […] Optical density was measured for each condition over 8 hours and the integrated area under the growth curve (AUGC) is depicted (colorbar). i) Dose response curves for temporally staggered combinations. All treatments lasted for 24 hours total. Pretreated conditions were treated for 2 hours with a single drug followed by 22 hours with both drugs.
To test for antagonism, Applicants measured viability in a time-resolved, checkerboard assay using GVA (FIGS. 6f, 21). In the checkerboard assay, DPI was combined with either ciprofloxacin or gentamicin across a 6×6 dose matrix. The ease of GVA enabled sampling the checkerboard over time, resulting in a complete pharmacokinetic profile of the drug-drug interaction.
For experiment [9], the system named is E. coli. The settings on record: 4 hours of treatment, less than 10 μg/mL DPI.
From the text: as §5, §4

Setting [10] is: 24 hours total, 2 hours single drug then 22 hours both drugs.

With `c1ccc2c(c1)[I+]c1ccccc1-2` [DPI, diphenyleneiodonium], the “potency in knockouts of other DNA repair enzymes, redox repair enzymes, or ROS scavengers” value in [1] (either growth phase) was “did not substantially change the potency”. Further, in experiment [1] (recA knockout, stationary and exponential phases), the “susceptibility of recA knockouts” value was “more susceptible to DPI”. Besides, the “potency in yedZ and fre knockouts” value in experiment [1] (stationary cells) was “modestly increased the potency”. The “activity in viability screen” value in experiment [2] is given as “bactericidal activity”. The “activity in dose response, stationary versus exponential cultures (follow up of Enzo library hits)” value in [3] was “active against both stationary and growing cultures”. Also, in [3] (increasing concentrations of ascorbic acid), the “efficacy on adding a ROS scavenger (ascorbic acid)” value was “reduced DPI efficacy”. Besides, the “viability at intermediate concentrations” value in experiment [3] (intermediate DPI concentrations, GVA) is “maintained viability”. The “activity in aerobic versus anaerobic environments” value in experiment [3] (24 hours) is “less active in anaerobic cultures”. Also, in experiment [4] (setting [10]), the “effect of 2 hours DPI pretreatment before adding ciprofloxacin” value is reported as “further increased protection” and the “effect of 2 hours ciprofloxacin pretreatment before DPI” value was “reduced DPI's antagonistic effects”. Also, the “increase in viability as compared to either drug alone” value in experiment [4] (DPI combined with ciprofloxacin) is given as 1,000 fold. In addition, in experiment [4] (DPI combined with gentamicin), the “increase in viability as compared to either drug alone” value is 1,000 fold. In experiment [5] (lethal DPI dose), the “ROS after the initial decrease” value is on record as “rapid spike in ROS” and the “time to ROS nadir after the drug was added” value was “around 75 minutes”. The “effect on ROS (CellROX signal) over time” value in experiment [5] is on record as “substantially decreased ROS”. Further, the “antagonism of ciprofloxacin and gentamicin” value in experiment [6] is “also observed”. For the same compound, the “dinB, dinG, and yjiH promoter activity” value in experiment [7] is given as “DPI-dependent increase”. Besides, the pol promoter activity entry in [7] (compared to a ribosomal protein control (rrnB)) was “persistent, dose-dependent induction”. Besides, in [7] (lexA promoter), the “time to increased lexA promoter activity after DPI addition” value was at most 90 min. Moreover, the “dose giving the highest promoter activity” value in experiment [7] (pol promoter, dose where filamentation was observed) amounted to 3 µg/mL. For the same compound, in experiment [8], the “antagonism in growth inhibition assay” value was “not observed”. Also, the cell morphology entry in experiment [9] is listed as “formation of bacterial filaments”.

As for `Cc1ccc(N(CC2=NCCN2)c2cccc(O)c2)cc1` [phentolamine], the “sensitivity of stationary versus exponentially growing cells” value in experiment [3] (high concentrations (20 μg/mL)) is recorded as “stationary cells were more sensitive”.

For the compound `NC(=Nc1ccccc1)NC(=O)c1nc(Cl)c(N)nc1N` [phenamil], the “activity in dose response, stationary versus exponential cultures (follow up of Enzo library hits)” value in [3] was “did not have any dose-dependent effect on viability”.

For `O=C(O)c1cn(C2CC2)c2cc(N3CCNCC3)c(F)cc2c1=O` [ciprofloxacin], in [3] (10 μg/mL, initial killing within an hour, stable through 6 hours, second phase by 24 hours), the pharmacodynamic profile entry is “biphasic pharmacodynamic profile”. For the same compound, in [3] (GVA), the “resistance of stationary phase cells compared with exponentially growing cells” value is listed as “more resistant”. For the same compound, the reduction in viability in experiment [3] (exponentially growing cultures, 10 μg/mL) worked out at 10 fold; in [3] (stationary cultures, 10 μg/mL) it was 10 fold. Besides, the “activity in aerobic versus anaerobic environments” value in [3] (24 hours) was “less active in anaerobic cultures”. For the same compound, the “effect on ROS (CellROX signal) over time” value in [5] is “monotonically increasing levels of ROS”.

Take `Cc1cccc(CCN2CCC(C(=O)c3ccc(NS(C)(=O)=O)cc3)CC2)n1` [E-4031]: the “activity in dose response, stationary versus exponential cultures (follow up of Enzo library hits)” value in experiment [3] is recorded as “did not have any dose-dependent effect on viability”.

Take gentamicin: the “resistance of stationary phase cells compared with exponentially growing cells” value in [3] (GVA) is recorded as “more resistant”. The “activity in aerobic versus anaerobic environments” value in [3] (24 hours) is “less active in anaerobic cultures”. Further, the “reduction in stationary phase cell viability” value in experiment [3] (stationary phase, 10 μg/mL, full 24 hours) is above 10 fold.

As to `CC1(C)S[C@@H]2[C@H](NC(=O)C(C(=O)O)c3ccccc3)C(=O)N2[C@H]1C(=O)O` (some centres unmarked) [carbenicillin], in experiment [3] (GVA), the “resistance of stationary phase cells compared with exponentially growing cells” value is recorded as “more resistant”. Also, the “change in viable cells” value in [3] (exponential cells, 10 μg/mL, after 24 hours treatment) is listed as “increase in viable cells”. The “change in number of colonies” value in experiment [3] (exponential cells, 10 μg/mL, first 6 hours) was “no change in the number of colonies”. Besides, the decrease in viability in experiment [3] (exponential cells, 100 μg/mL, 24 hours) is reported as 10,000 fold. In [3] (stationary cells, 100 μg/mL, 24 hours), this compound gave a decline in viability below 10 fold.

On to `CO[C@@]12[C@H](COC(N)=O)C3=C(C(=O)C(C)=C(N)C3=O)N1C[C@@H]1N[C@@H]12` [mitomycin C], for which the “activity in viability screen” value in experiment [2] is on record as “bactericidal activity”. The “activity in dose response, stationary versus exponential cultures (follow up of Enzo library hits)” value in [3] is “more active against exponentially growing cells compared to cells in stationary phase”.
